Assay [1] relates to Eschericia coli (E. coli) strain ATCC25922. Put plainly: Standard microdilution assay, MIC against E. coli ATCC25922. The format is cell-based. To be noted: Escherichia coli; E. coli strain ATCC25922, standard microdilution assay; cutoff 16 micrograms/mL; read-out: MIC E. Coli. The method in brief: (§1)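 Scoring as + or − used a 16 micrograms/mL cutoff on minimum inhibitory concentrations. These came from CLSI-standard microdilution, quality-controlled with reference strains tested in the same run.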
In general terms: Broth dilution looks for growth in wells or tubes with falling amounts of substance.

In assay [2] the test system is Staphylococcus aureus (S. aureus) 11540 strain. Put plainly: Standard microdilution assay, MIC against S. aureus 11540. To be noted: S. aureus 11540 strain, standard microdilution assay, cutoff 16 micrograms/mL, read-out: MIC S. aureus. It is filed as cell-based. The method in brief: as §1

This is an account of results in patent publication US10815238B2, “Antimicrobial compounds and methods of making and using the same” (BIOVERSYS AG, priority 2013, dated 2020).

The structures appear in SMILES notation.

On to `C[C@H](N)CCCc1cc(Cl)c(F)c(-c2cc3cn(-c4ccc([C@@H]5CCC[C@@H](CCNC(=N)N)N5)cc4)c(=O)nc3[nH]2)c1` [Compound 420], for which the MIC in assay [1] and in assay [2] was under 16 µg/mL throughout.
Turning to `C[C@H](N)CCCc1cc(Cl)c(F)c(-c2cc3cn(-c4ccc([C@@H]5CCC[C@@H](CCN)N5)cc4)c(=O)nc3[nH]2)c1` [Compound 421], the MIC in assay [1] and in assay [2] was under 16 µg/mL throughout.
With `C[C@H](N)CCCc1cc(Cl)c(F)c(-c2cc3cn(-c4ccc([C@H](C)NCC[C@@H](CNC(=O)CN)NC(=N)N)cc4)c(=O)nc3[nH]2)c1` [Compound 422], the MIC in assay [1] and in assay [2] was under 16 µg/mL throughout.
As for `C[C@H](N)CCCc1cc(OC(F)(F)F)c(F)c(-c2cc3cn(-c4ccc([C@H](C)NCC[C@@H](CNC(=O)CN)NC(=N)N)cc4)c(=O)nc3[nH]2)c1` [Compound 423], the minimal inhibitory concentration (MIC) in assay [1] and in assay [2] was under 16 µg/mL in each case.
As for `C[C@H](N)CCCc1cc(Cl)c(F)c(-c2cc3cn(-c4ccc([C@H](C)NCC[C@H](N)CNC(=O)CN)cc4)c(=O)nc3[nH]2)c1` [Compound 424], the MIC in assay [1] and in assay [2] was under 16 µg/mL throughout.
Consider `C[C@H](N)CCCc1cc(Cl)c(F)c(-c2cc3cn(-c4ccc([C@@H](N)CCN)cc4)c(=O)nc3[nH]2)c1` [Compound 425], for which the minimum inhibitory concentration (MIC) in assay [1] and in assay [2] was under 16 µg/mL each time.
Regarding `C[C@H](N)CCCc1cc(OC(F)(F)F)c(F)c(-c2cc3cn(-c4ccc([C@@H](N)CCN)cc4)c(=O)nc3[nH]2)c1` [Compound 426], the minimal inhibitory concentration (MIC) in assay [1] and in assay [2] was under 16 µg/mL throughout.
With `C[C@H](N)CCCc1cc(Cl)c(F)c(-c2cc3cn(-c4ccc([C@@H](N)CCNC(=N)N)cc4)c(=O)nc3[nH]2)c1` [Compound 427], the minimum inhibitory concentration (MIC) in assay [1] and in assay [2] was under 16 µg/mL each time.
On to `C[C@H](N)CCCc1cc(OC(F)(F)F)c(F)c(-c2cc3cn(-c4ccc([C@@H](N)CCNC(=N)N)cc4)c(=O)nc3[nH]2)c1` [Compound 428], for which the MIC in assay [1] and in assay [2] was under 16 µg/mL in each case.
As for `C[C@H](N)CCCc1cc(OC(F)(F)F)c(F)c(-c2cc3cn(-c4ccc([C@@H]5CCC[C@@H](CCN)N5)cc4)c(=O)nc3[nH]2)c1` [Compound 429], the minimal inhibitory concentration (MIC) in assay [1] and in assay [2] was under 16 µg/mL each time.
As for `C[C@H](N)CCCc1cc(OC(F)(F)F)c(F)c(-c2cc3cn(-c4ccc([C@@H]5CCC[C@@H](CCNC(=N)N)N5)cc4)c(=O)nc3[nH]2)c1` [Compound 430], the MIC in assay [1] and in assay [2] was under 16 µg/mL in each case.
For the molecule `C[C@H](N)CCCc1cc(Cl)c(F)c(-c2cc3cn(-c4ccc([C@H](C)N5CC[C@@H](NC(=N)N)C5)cc4)c(=O)nc3[nH]2)c1` [Compound 431], the MIC in assay [1] and in assay [2] was under 16 µg/mL throughout.
Turning to `CC[C@H](NCCCNC(=N)N)c1ccc(-n2cc3cc(-c4cc(CCC[C@@H](N)CO)cc(Cl)c4F)[nH]c3nc2=O)cc1` [Compound 432], the minimal inhibitory concentration (MIC) in assay [1] and in assay [2] was under 16 µg/mL throughout.
Take `C[C@H](N)CCCc1cc(Cl)c(F)c(-c2cc3cn(-c4ccc([C@H]5CCC[C@H](CCNC(=N)N)N5)cc4)c(=O)nc3[nH]2)c1` [Compound 433]: the minimum inhibitory concentration (MIC) in assay [1] and in assay [2] was under 16 µg/mL each time.
Consider `C[C@H](N)CCCc1cc(Cl)c(F)c(-c2cc3cn(-c4ccc(C5(CCNC(=N)N)CNC5)cc4)c(=O)nc3[nH]2)c1` [Compound 434], for which the MIC in assay [1] and in assay [2] was under 16 µg/mL each time.
On to `C[C@H](N)CCCc1cc(OC(F)(F)F)c(F)c(-c2cc3cn(-c4ccc(C5(CCNC(=N)N)CNC5)cc4)c(=O)nc3[nH]2)c1` [Compound 435], for which the minimal inhibitory concentration (MIC) in assay [1] and in assay [2] was under 16 µg/mL in each case.
In the case of `C[C@H](N)CCCc1cc(Cl)c(F)c(-c2cc3cn(-c4ccc(CN[C@@H](C)C[C@@H](CO)NC(=N)N)cc4)c(=O)nc3[nH]2)c1` [Compound 436], the minimal inhibitory concentration (MIC) in assay [1] and in assay [2] was under 16 µg/mL each time.
As for `C[C@H](N)CCCc1cc(Cl)c(F)c(-c2cc3cn(-c4ccc(CN[C@@H](C)C[C@H](CO)NC(=N)N)cc4)c(=O)nc3[nH]2)c1` [Compound 437], the MIC in assay [1] and in assay [2] was under 16 µg/mL in each case.
As for `C[C@H](N)CCCc1cc(Cl)c(F)c(-c2cc3cn(-c4ccc([C@@H]5CCC[C@H](CCNC(=N)N)N5)cc4)c(=O)nc3[nH]2)c1` [Compound 438], the MIC in assay [1] and in assay [2] was under 16 µg/mL throughout.
For the molecule `C[C@H](N)CCCc1cc(OC(F)(F)F)c(F)c(-c2cc3cn(-c4ccc([C@@H]5CCC[C@H](CCNC(=N)N)N5)cc4)c(=O)nc3[nH]2)c1` [Compound 439], the MIC in assay [1] and in assay [2] was under 16 µg/mL throughout.
Take `C[C@H](N)CCCc1cc(Cl)c(F)c(-c2cc3cn(-c4ccc([C@H](N)CCN)cc4)c(=O)nc3[nH]2)c1` [Compound 440]: the minimum inhibitory concentration (MIC) in assay [1] and in assay [2] was under 16 µg/mL throughout.
As for `C[C@H](N)CCCc1cc(OC(F)(F)F)c(F)c(-c2cc3cn(-c4ccc([C@H](N)CCN)cc4)c(=O)nc3[nH]2)c1` [Compound 441], the minimum inhibitory concentration (MIC) in assay [1] and in assay [2] was under 16 µg/mL in each case.
Consider `C[C@H](N)CCCc1cc(Cl)c(F)c(-c2cc3cn(-c4ccc([C@H](N)CCNC(=N)N)cc4)c(=O)nc3[nH]2)c1` [Compound 442], for which the MIC in assay [1] and in assay [2] was under 16 µg/mL each time.
Consider `C[C@H](N)CCCc1cc(OC(F)(F)F)c(F)c(-c2cc3cn(-c4ccc([C@H](N)CCNC(=N)N)cc4)c(=O)nc3[nH]2)c1` [Compound 443], for which the minimal inhibitory concentration (MIC) in assay [1] and in assay [2] was under 16 µg/mL in each case.
Regarding `C[C@H](N)CCCc1cc(Cl)c(F)c(-c2cc3cn(-c4ccc([C@H]5CCC[C@@H](CCNC(=N)N)N5)cc4)c(=O)nc3[nH]2)c1` [Compound 444], the MIC in assay [1] and in assay [2] was under 16 µg/mL in each case.
On to `C[C@H](NCCCNC(=N)N)c1ccc(-n2cc3cc(-c4cc([C@H]5CC[C@@H](CN)O5)cc(Cl)c4F)[nH]c3nc2=O)cc1` [Compound 445], for which the MIC in assay [1] and in assay [2] was under 16 µg/mL in each case.
`C[C@H](NCCCNC(=N)N)c1ccc(-n2cc3cc(-c4cc([C@@H]5CC[C@H](CN)O5)cc(Cl)c4F)[nH]c3nc2=O)cc1` [Compound 446]: the minimum inhibitory concentration (MIC) in assay [1] and in assay [2] was under 16 µg/mL throughout.
As to `C[C@H](N)CCCc1cc(Cl)c(F)c(-c2cc3cn(-c4ccc(C(O)[C@@H]5C[C@@H](NC(=N)N)CN5)cc4)c(=O)nc3[nH]2)c1` (some centres unmarked) [Compound 447], the minimum inhibitory concentration (MIC) in assay [1] and in assay [2] was under 16 µg/mL throughout.
Regarding `C[C@H](N)CCCc1cc(OC(F)(F)F)c(F)c(-c2cc3cn(-c4ccc(C(O)[C@@H]5C[C@@H](NC(=N)N)CN5)cc4)c(=O)nc3[nH]2)c1` (some centres unmarked) [Compound 448], the MIC in assay [1] and in assay [2] was under 16 µg/mL in each case.
Turning to `C[C@H](N)CCCc1cc(OC(F)(F)F)c(F)c(-c2cc3cn(-c4ccc(C(O)[C@@H]5C[C@@H](N)CN5)cc4)c(=O)nc3[nH]2)c1` (some centres unmarked) [Compound 449], the minimal inhibitory concentration (MIC) (in general, the least concentration at which growth counts as inhibited) in assay [1] was over 16 µg/mL; in assay [2] it was under 16 µg/mL.
Taken in the same sequence, the figures for `C[C@H](CCNC(=N)N)NCc1ccc(-n2cc3cc(-c4cc(CCC[C@@H](N)CO)cc(Cl)c4F)[nH]c3nc2=O)cc1` [Compound 450] were under 16 µg/mL and under 16 µg/mL.
Regarding `C[C@H](N)CCCc1cc(Cl)c(F)c(-c2cc3cn(-c4ccc([C@H]5COC[C@@H](CNC(=N)N)N5)cc4)c(=O)nc3[nH]2)c1` [Compound 451], the MIC in assay [1] and in assay [2] was under 16 µg/mL in each case.
In the case of `C[C@H](N)CCCc1cc(Cl)c(F)c(-c2cc3cn(-c4ccc([C@@H]5COC[C@@H](CO)N5)cc4)c(=O)nc3[nH]2)c1` [Compound 452], the minimum inhibitory concentration (MIC) in assay [1] and in assay [2] was over 16 µg/mL in each case.
`C[C@H](N)CCCc1cc(OC(F)(F)F)c(F)c(-c2cc3cn(-c4ccc([C@@H]5COC[C@@H](CO)N5)cc4)c(=O)nc3[nH]2)c1` [Compound 453]: the minimal inhibitory concentration (MIC) in assay [1] and in assay [2] was over 16 µg/mL throughout.
Take `C[C@H](N)CCCc1cc(Cl)c(F)c(-c2cc3cn(-c4ccc([C@H](N)CCCN)cc4)c(=O)nc3[nH]2)c1` [Compound 454]: the MIC in assay [1] and in assay [2] was under 16 µg/mL each time.
Consider `C[C@H](N)CCCc1cc(OC(F)(F)F)c(F)c(-c2cc3cn(-c4ccc([C@H](N)CCCN)cc4)c(=O)nc3[nH]2)c1` [Compound 455], for which the MIC in assay [1] and in assay [2] was under 16 µg/mL in each case.
With `C[C@H](N)CCCc1cc(Cl)c(F)c(-c2cc3cn(-c4ccc([C@H](N)CCCNC(=N)N)cc4)c(=O)nc3[nH]2)c1` [Compound 456], the MIC in assay [1] and in assay [2] was under 16 µg/mL in each case.
As to `C[C@H](N)CCCc1cc(OC(F)(F)F)c(F)c(-c2cc3cn(-c4ccc([C@H](N)CCCNC(=N)N)cc4)c(=O)nc3[nH]2)c1` [Compound 457], the minimum inhibitory concentration (MIC) in assay [1] and in assay [2] was under 16 µg/mL each time.
`C[C@H](N)CCCc1cc(Cl)c(F)c(-c2cc3cn(-c4ccc(C5(N)CNC5)cc4)c(=O)nc3[nH]2)c1` [Compound 458]: the MIC in assay [1] was over 16 µg/mL; in assay [2], under 16 µg/mL.
Take `C[C@H](N)CCCc1cc(Cl)c(F)c(-c2cc3cn(-c4ccc(C(=O)NCCCNC(=N)N)cc4)c(=O)nc3[nH]2)c1` [Compound 459]: the minimal inhibitory concentration (MIC) in assay [1] and in assay [2] was under 16 µg/mL throughout.
Take `C[C@H](N)CCCc1cc(Cl)c(F)c(-c2cc3cn(-c4ccc(C(=N)NCCCN)cc4)c(=O)nc3[nH]2)c1` [Compound 460]: the MIC in assay [1] and in assay [2] was under 16 µg/mL in each case.
For `C[C@H](N)CCCc1cc(OC(F)(F)F)c(F)c(-c2cc3cn(-c4ccc(C(=O)NCCCNC(=N)N)cc4)c(=O)nc3[nH]2)c1` [Compound 461], the MIC in assay [1] and in assay [2] was under 16 µg/mL each time.
On to `C[C@H](N)CCCc1cc(OC(F)(F)F)c(F)c(-c2cc3cn(-c4ccc(C(=N)NCCCN)cc4)c(=O)nc3[nH]2)c1` [Compound 462], for which the minimal inhibitory concentration (MIC) in assay [1] and in assay [2] was under 16 µg/mL in each case.
